Data on 2 compounds can be found in patent publication US20230219957A1, “SMALL MOLECULE CB002-ANALOGES RESTORE THE P53 PATHWAY AND TARGET S-PHASE CHECKPOINT” (Brown University, priority 2020, published 2023).

Holding throughout (format): cell-based, human
In one experiment the test system is HCT116 p53 R273H. Kind of experiment: CellTiter-Glo (Cell-Titer glow) cytotoxicity assay. To be noted: forty-eight hours. Here is the method:
(§1) CellTiter-Glo® luminescent cell viability assay. Cells were seeded in 96-well plates at a density of 5×10^3 cells per well. 20 μL of CellTiter-Glo® Reagent was added directly to the wells, following the manufacturers protocol. The bioluminescence signal was determined using an IVIS imaging system, optionally at a period of 48-72 hours after treatment.
(§2) CB002-analog #4 is a potent anti-tumor agent in vitro and in vivo. The inventors focused on lead CB002-analog #4 and investigated its therapeutic index in vitro and in vivo. The inventors treated an isogenic HCT116 cell line panel with 100 μM CB002 or 25 μM CB002-analog #4 and established IC50 values by the Cell-Titer glow cytotoxicity assay. Across this panel, CB002-analog #4 has a 20-fold to 30-fold range in IC50 values, independently of the HCT116 p53-status.
On the technique in general: Cellular ATP, detected with luciferase, serves as a proxy for viable cell number.

Another experiment concerns HCT116 p53+/+. Kind of experiment: CellTiter-Glo (Cell-Titer glow) cytotoxicity assay. To be noted: forty-eight hours. Here is the method:
as §1, §2

The test system of a further experiment is HCT116 p53−/−. Kind of experiment: CellTiter-Glo (Cell-Titer glow) cytotoxicity assay. To be noted: forty-eight hours. Here is the method: as §1, §2
The test system of experiment [1] is SW480 colon cancer cells. Kind of experiment: Propidium iodide / BrdU cell cycle analysis of synchronized cells. As to the method: (§3) Cell synchronization. Synchronized cells were synchronized by double thymidine block. Cells were treated with […] thymidine for sixteen hours. The drug was removed and replaced by complete growth media for eight hours. Cells were treated for the second time with […] thymidine for sixteen hours. At this point, cells were treated and harvested.
Propidium iodide and BrdU flow cytometry assay. Cells were seeded at a density of 5×10^5 in a 6-well plate and treated for forty-eight to seventy-two hours. After treatment, floating cells were collected, and adherent cells were trypsinized, pelleted, washed with phosphate-buffered saline, and fixed in 70% ethanol overnight. For propidium iodide (PI) based Sub-G1 apoptosis analysis, cells were spun down after fixation and resuspended in phosphate-citric acid buffer (0.2M Na2HPO4+0.1M Citric Acid, pH 7.8) at room temperature for five minutes. The cell pellet was resuspended for staining with 50 μg/mL PI and 250 μg/mL ribonuclease (RNase A). For BrdU analysis, after cell fixation, cells were spun down and resuspended in one mL of 2N HCL with 0.5% Triton X-100 for thirty minutes at room temperature. Cells were pelleted, washed with phosphate-buffered saline, and resuspended in 20 μL BrdU antibody (BD Biosciences, cat no. 347580) diluted in 0.5% Tween 20/PBS/5% bovine serum albumin for thirty minutes at room temperature. Cells were then spun down and resuspended in 140 μg/mL goat-anti mouse Alexa Fluor 488 (#A-11008, Thermo Fisher Scientific, Waltham, Mass., USA) in 0.5% Tween 20 in phosphate-buffered saline/5% bovine serum albumin for thirty minutes at room temperature. Cells were then spun down and resuspended in 5 μg/mL PI: 250 μg/mL RNase A solution. Samples were analyzed on an Epics Elite Epics flow cytometer (Coulter-Beckman).
BrdU analysis gating. Cell aggregates were gated out in the PI Peak vs DNA PI histogram. BrdU lower limit intensity was set on the upper limit of the negative control. The no BrdU antibody assays and no goat-anti mouse Alexa Fluor 488 antibody assays were the negative controls. […] Gating was held constant throughout the samples within a given assay.

Experiment [2] deals with SW480 colon cancer cells. Kind of experiment: Immunoblot of cell cycle markers. Conditions: for M-phase marker pH3(Ser10) / pcdc2(Tyr15) and pcdc25c(Ser16) expression: combination with etoposide; for S-phase marker p-RPA-RPA2(S8) expression: synchronized SW480, time-course after release. Here is the method:
Immunoblotting (additional method). After treatment, floating cells were collected, and adherent cells were trypsinized, washed with phosphate-buffered saline, and lysed with RIPA buffer (Sigma-Aldrich, St. Louis, Mo., USA) for thirty minutes to one hour at 4° C. Protein lysates were pelleted. The supernatant was collected. Total protein per sample was determined using a Pierce™ BCA Protein Assay Kit (Thermo Fisher Scientific, Waltham, Mass., USA). Proteins were denatured using 1× NuPAGE® LDS sample buffer (Thermo Fisher Scientific, Waltham, Mass., USA) and reduced with 2-mercaptoethanol (Sigma-Aldrich, St. Louis, Mo., USA). Protein lysates were boiled for fifteen min at 95° C. After protein normalization, samples were loaded into NuPAGE™ Novex™ 4-12% Bis-Tris Protein Gels (Thermo Fisher Scientific, Waltham, Mass., USA). Gel electrophoresis was performed with NuPAGE™ MES SDS Running Buffer. Proteins were transferred onto an Immobilon-P membrane (PVDF, EMD Millipore, Taunton, Mass., USA) using a Bio-Rad system with a 10% Tris-Glycine and 10% methanol transfer buffer diluted in distilled and deionized water. Membranes were blocked with 10% milk in Tris-buffered saline with Tween 20 (TBST) solution. The membranes were incubated overnight with the primary antibody, washed with TBST, and incubated with secondary antibody for one hour. Primary antibody incubations were performed in 5% milk or 5% bovine serum albumin in TBST solution as per manufacturer instructions. Signal was detected using a chemiluminescent detection kit, followed by autoradiography. The following antibodies were used: p53 (1:1000, #sc-126, Santa Cruz Biotechnology, Santa Cruz, Calif., USA), p73 (1:1000, #A300-126A, Bethyl Laboratories), Noxa (1:250, #OP180, EMD Millipore, Taunton, Mass., USA), DR5 (#3696), cleaved PARP (#9546), phospho-RPA32/RPA2 (#54762), p-cdc2 (#9111), p-cdc25c, pH3 (#3377) (1:1,000; Cell Signaling Technology, Inc., Danvers, Mass. USA) and β-actin (1:10000, A5441, Sigma).
as §3

One may read the IC50 as the midpoint of a concentration-inhibition curve. For `Cn1c(=O)c2[nH]c(Nc3ccccc3)nc2n(C)c1=O` [CB002], the IC50 turned out to be 140 µM in the experiment on HCT116 p53 R273H (Homo sapiens, HCT-116); 242 µM with HCT116 p53+/+ (Homo sapiens, HCT-116); 161 µM with HCT116 p53−/− (Homo sapiens, HCT-116). Also, in the experiment on SW480 colon cancer cells [1] (six-eight hours of treatment, combined with etoposide), the “S-phase delay, difference” value is 2 fold. Moreover, the “M-phase marker pH3(Ser10)” value in the experiment on SW480 colon cancer cells [2] (synchronized SW480) was “does not increase”. Also, the “pcdc2(Tyr15) and pcdc25c(Ser16) expression” value in the experiment on SW480 colon cancer cells [2] (synchronized SW480) is recorded as “decrease in expression”. In the experiment with SW480 colon cancer cells [2], the “S-phase marker p-RPA-RPA2(S8) expression” value is reported as “increase”.

In the case of `Cn1c(=O)c2[nH]c(Nc3cccc(C(F)(F)F)c3)nc2n(C)c1=O` [CB002-analog #4], the IC50 was determined as 8.09 µM in the experiment on HCT116 p53 R273H, 8.69 µM in the experiment with HCT116 p53+/+ and 8.83 µM in the experiment with HCT116 p53−/−. In the experiment on SW480 colon cancer cells [1] (eight hours following release from synchronization), the S-phase accumulation entry is reported as “S-phase accumulation”. Moreover, in the experiment with SW480 colon cancer cells [1] (twelve hours, PI and BrdU co-staining, compared to DMSO vehicle control), the “increase of cells in S-phase” value worked out at 30%. The “G2-phase cells versus etoposide” value with SW480 colon cancer cells [1] (twenty-four hours) is on record as “no significant differences”. In the experiment with SW480 colon cancer cells [2] (synchronized SW480), the “M-phase marker pH3(Ser10)” value is reported as “does not increase”. Further, in the experiment on SW480 colon cancer cells [2] (synchronized SW480), the “pcdc2(Tyr15) and pcdc25c(Ser16) expression” value is reported as “decrease in expression”. In addition, in the experiment with SW480 colon cancer cells [2] (single agent, synchronized SW480), the “pcdc2(Tyr15) and pcdc25c(Ser16) protein expression” value was “decreased”. For the same compound, the “S-phase marker p-RPA-RPA2(S8) expression” value in the experiment with SW480 colon cancer cells [2] was “increased compared to DMSO”. Further, the p21 entry in the experiment on SW480 colon cancer cells [2] (time-course after synchronization release) is “increase”. Besides, the “Cyclin A expression” value in the experiment on SW480 colon cancer cells [2] (time-course, compared to DMSO and etoposide) is reported as “did not decrease over time”.
